Experimental data published in article PMC6044785 (ACS Omega, 2017).
Read-outs that look alike come from different tables or passages of the source. Square brackets hold non-standard residues; d marks the D form. Peptide text beside a SMILES is read from it. Gly(But-3-enyl) = C=CCC[C@H](N)C(=O)O; Aib = CC(C)(N)C(=O)O

Legend:
HeLa nuclear extract = test: HDAC inhibition assay with HeLa nuclear extract; type: biochemical, human; conditions: read-out: IC50 (μM) HeLa nuclear extract; Table 1; mean ± SD of three independent experiments; >100 = not active (inhibition < 50% at 100 μM)
HDAC6 = target: T1, HDAC6 (Homo sapiens, UniProt Q9UBN7); test: HDAC6 enzymatic inhibition assay; type: biochemical
T1 sequence (Q9UBN7 1-1215): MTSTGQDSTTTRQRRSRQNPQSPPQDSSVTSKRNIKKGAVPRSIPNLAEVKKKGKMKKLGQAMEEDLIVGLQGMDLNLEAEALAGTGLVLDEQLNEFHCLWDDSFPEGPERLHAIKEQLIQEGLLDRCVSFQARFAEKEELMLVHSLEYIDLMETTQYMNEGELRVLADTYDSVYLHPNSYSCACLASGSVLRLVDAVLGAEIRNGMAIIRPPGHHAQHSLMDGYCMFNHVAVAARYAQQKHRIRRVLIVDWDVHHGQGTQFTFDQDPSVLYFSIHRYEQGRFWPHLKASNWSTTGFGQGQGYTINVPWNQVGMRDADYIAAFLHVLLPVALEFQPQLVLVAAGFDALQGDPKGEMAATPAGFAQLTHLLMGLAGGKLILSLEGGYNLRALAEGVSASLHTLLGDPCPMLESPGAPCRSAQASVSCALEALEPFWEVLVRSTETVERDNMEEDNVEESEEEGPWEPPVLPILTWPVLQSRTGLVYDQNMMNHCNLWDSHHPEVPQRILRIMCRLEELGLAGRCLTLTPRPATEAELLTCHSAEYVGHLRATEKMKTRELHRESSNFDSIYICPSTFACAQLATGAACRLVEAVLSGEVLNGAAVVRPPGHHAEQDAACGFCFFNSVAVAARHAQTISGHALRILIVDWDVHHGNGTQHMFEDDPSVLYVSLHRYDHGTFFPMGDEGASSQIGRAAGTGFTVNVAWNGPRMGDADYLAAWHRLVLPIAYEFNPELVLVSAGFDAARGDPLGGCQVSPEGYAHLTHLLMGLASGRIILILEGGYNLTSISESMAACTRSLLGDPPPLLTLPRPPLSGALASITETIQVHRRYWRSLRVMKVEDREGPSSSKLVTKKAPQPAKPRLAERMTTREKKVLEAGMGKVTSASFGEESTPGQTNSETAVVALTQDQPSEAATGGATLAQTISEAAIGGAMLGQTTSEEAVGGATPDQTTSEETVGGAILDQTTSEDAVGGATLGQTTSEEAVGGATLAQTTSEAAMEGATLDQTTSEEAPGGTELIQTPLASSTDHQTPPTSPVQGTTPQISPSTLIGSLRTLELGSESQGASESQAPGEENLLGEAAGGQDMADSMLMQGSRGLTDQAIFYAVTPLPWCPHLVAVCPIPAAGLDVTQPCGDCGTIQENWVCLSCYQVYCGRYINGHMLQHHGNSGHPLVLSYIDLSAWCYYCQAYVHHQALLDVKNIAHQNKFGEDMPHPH

HDAC1 = HDAC1 (Homo sapiens, UniProt Q13547); test: HDAC1 enzymatic inhibition assay; type: biochemical
HDAC3/NCOR2 = HDAC3/NCOR2 (Homo sapiens, UniProt O15379); test: HDAC3/NCOR2 enzymatic inhibition assay; type: biochemical
HDAC4 = HDAC4 (Homo sapiens, UniProt P56524); test: HDAC4 enzymatic inhibition assay; type: biochemical
HDAC8 = target: T2, HDAC8 (Homo sapiens, UniProt Q9BY41); test: HDAC8 enzymatic inhibition assay; type: biochemical
T2 sequence (Q9BY41 1-377): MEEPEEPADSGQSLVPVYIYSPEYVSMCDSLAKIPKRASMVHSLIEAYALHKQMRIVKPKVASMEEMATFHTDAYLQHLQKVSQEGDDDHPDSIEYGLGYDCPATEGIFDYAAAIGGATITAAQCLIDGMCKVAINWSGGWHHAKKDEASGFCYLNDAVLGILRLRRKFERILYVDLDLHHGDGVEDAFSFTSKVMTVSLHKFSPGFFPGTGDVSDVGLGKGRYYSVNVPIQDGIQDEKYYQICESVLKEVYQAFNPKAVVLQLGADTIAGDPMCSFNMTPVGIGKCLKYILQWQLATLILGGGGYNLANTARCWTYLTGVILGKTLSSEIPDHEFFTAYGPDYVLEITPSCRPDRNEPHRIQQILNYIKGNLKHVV

P. falciparum [1] = test: P. falciparum [3H]-hypoxanthine incorporation assay; type: cell-based, Plasmodium falciparum 3D7 strain; conditions: Plasmodium falciparum, 3D7, read-out: GI50 (μM) P. falciparum
Jurkat [2] = test: Antiproliferative activity on Jurkat cells; type: cell-based; conditions: Homo sapiens, read-out: GI50 (μM) Jurkat
K562 [3] = test: Antiproliferative activity on K562 cells; type: cell-based; conditions: Homo sapiens, K562, read-out: GI50 (μM) K562
HeLa = test: Antiproliferative activity on HeLa cells; type: cell-based, human; conditions: 72 h, read-out: GI50 (μM) HeLa
HEK293 = test: Antiproliferative activity on HEK293 cells; type: cell-based, human; conditions: read-out: GI50 (μM) HEK293
normal B lymphocytes = test: Antiproliferative activity on normal B lymphocytes; type: cell-based; conditions: Homo sapiens, Lymphocyte, 72 h, read-out: GI50 normal B lymphocytes
P. falciparum [4] = conditions: read-out: GI50 (μM) P. falciparum; Table 3; ref [22]; cited from earlier work
Jurkat [5] = conditions: read-out: GI50 (μM) Jurkat; Table 3; ref [22]; cited from earlier work
K562 [6] = conditions: read-out: GI50 (μM) K562; Table 3; ref [22]; cited from earlier work
T. gondii RH strain = conditions: read-out: IC50 T. gondii RH strain; ref [22]; cited from earlier work

Chain of HDAC3/NCOR2 (O15379 whole entry): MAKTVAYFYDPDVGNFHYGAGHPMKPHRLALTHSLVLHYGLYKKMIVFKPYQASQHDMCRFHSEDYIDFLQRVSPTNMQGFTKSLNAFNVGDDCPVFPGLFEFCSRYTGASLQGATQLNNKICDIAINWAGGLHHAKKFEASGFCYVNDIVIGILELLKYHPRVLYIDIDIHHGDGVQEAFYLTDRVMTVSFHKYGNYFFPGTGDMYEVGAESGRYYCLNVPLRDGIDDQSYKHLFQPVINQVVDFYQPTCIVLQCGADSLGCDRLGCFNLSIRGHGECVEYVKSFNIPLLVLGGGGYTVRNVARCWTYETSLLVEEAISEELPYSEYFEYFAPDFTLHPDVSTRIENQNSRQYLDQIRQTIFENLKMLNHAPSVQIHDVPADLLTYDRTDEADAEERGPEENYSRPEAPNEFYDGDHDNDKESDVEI
Chain of HDAC3/NCOR2 (Q9Y618 395-489 partner limits assumed): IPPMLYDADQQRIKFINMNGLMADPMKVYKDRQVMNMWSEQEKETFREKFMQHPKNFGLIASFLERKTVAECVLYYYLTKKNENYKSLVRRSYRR
Chain of HDAC4 (P56524 whole entry): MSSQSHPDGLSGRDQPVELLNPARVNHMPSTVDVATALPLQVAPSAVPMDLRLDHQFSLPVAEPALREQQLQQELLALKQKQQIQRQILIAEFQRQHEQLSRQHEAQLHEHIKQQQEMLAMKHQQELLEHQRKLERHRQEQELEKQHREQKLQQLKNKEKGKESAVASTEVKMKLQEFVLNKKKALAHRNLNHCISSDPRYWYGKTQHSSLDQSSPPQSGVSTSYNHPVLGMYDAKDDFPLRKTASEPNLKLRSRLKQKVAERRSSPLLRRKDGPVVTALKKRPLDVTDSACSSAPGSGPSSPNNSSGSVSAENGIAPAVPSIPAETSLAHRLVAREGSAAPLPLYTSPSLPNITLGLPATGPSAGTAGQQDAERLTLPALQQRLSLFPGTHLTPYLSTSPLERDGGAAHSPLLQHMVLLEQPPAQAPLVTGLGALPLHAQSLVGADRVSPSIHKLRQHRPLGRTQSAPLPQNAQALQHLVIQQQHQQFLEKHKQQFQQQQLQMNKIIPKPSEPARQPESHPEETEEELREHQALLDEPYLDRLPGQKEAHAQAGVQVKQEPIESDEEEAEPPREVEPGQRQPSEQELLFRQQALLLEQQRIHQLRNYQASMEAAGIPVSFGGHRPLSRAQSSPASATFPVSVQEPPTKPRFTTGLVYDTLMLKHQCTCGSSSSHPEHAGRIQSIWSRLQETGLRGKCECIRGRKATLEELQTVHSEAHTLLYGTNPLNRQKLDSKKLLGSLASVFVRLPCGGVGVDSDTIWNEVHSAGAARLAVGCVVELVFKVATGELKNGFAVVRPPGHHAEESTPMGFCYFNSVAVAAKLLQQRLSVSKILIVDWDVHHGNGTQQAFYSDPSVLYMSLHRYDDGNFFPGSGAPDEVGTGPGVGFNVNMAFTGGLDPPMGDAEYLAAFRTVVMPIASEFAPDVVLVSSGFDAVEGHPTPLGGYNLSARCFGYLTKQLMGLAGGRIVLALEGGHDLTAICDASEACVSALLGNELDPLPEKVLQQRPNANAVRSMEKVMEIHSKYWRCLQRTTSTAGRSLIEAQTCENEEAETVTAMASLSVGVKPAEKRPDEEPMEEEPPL
Chain of HDAC1 (Q13547 whole entry): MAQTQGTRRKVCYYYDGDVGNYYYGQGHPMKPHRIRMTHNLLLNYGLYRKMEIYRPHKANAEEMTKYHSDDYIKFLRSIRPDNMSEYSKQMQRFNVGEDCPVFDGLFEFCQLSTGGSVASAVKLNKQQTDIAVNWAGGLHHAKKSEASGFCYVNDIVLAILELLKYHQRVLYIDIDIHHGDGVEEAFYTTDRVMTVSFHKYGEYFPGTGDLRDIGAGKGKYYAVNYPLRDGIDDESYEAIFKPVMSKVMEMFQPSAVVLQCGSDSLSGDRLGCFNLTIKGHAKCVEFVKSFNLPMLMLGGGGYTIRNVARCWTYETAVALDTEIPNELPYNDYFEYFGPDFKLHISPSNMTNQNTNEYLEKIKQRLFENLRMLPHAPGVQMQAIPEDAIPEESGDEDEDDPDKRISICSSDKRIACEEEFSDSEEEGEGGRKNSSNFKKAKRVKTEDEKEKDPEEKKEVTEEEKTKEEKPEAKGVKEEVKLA

SMILES	IC50 (HeLa nuclear extract)	IC50 (HDAC6)	IC50 (HDAC1)	IC50 (HDAC3/NCOR2)	IC50 (HDAC4)	IC50 (HDAC8)	GI50 (Jurkat [2])	GI50 (K562 [3])	GI50 (HeLa; Homo sapiens)	GI50 (P. falciparum [1])	GI50 (HEK293; Homo sapiens, HEK293, 72 h)	also measured
C[C@@H](O)C(=O)CCCCC[C@@H]1NC(=O)[C@H]2CCCN2C(=O)[C@H](Cc2ccccc2)NC(=O)C(C)(C)NC1=O [Compound 3]	0.0081 ± 0.0019 µM	> 300 µM	0.96 ± 0.6 µM	0.33 ± 0.01 µM	> 100 µM	7.02 ± 1.53 µM	–	–	0.17 ± 0.01 µM	–	0.04 ± 0.02 µM	GI50 (P. falciparum [4]): 0.0174 ± 0.002 µM; GI50 (Jurkat [5]): 0.048 ± 0.001 µM; GI50 (K562 [6]): 0.018 ± 0.002 µM; IC50 (T. gondii RH strain): 0.0286 µM
CC(=O)O[C@H](C)C(=O)CCCCC[C@@H]1NC(=O)[C@H]2CCCN2C(=O)[C@H](Cc2ccccc2)NC(=O)C(C)(C)NC1=O [Compound 13]	0.11 ± 0.0008 µM	> 300 µM	0.39 ± 0.02 µM	0.35 ± 0.003 µM	> 100 µM	1.87 ± 0.42 µM	–	–	–	–	–	GI50 (HeLa; Table 3, XTT): 0.119 ± 0.008 µM; GI50 (HEK293; Table 3, 72 h, XTT): 0.006 ± 0.001 µM; GI50 (P. falciparum [4]): 0.0221 ± 0.001 µM; GI50 (Jurkat [5]): 0.127 ± 0.011 µM; GI50 (K562 [6]): 0.061 ± 0.002 µM
C=CCC[C@@H]1NC(=O)[C@H]2CCCN2C(=O)[C@H](Cc2ccccc2)NC(=O)C(C)(C)NC1=O [Compound 14] (cyclo([Aib]F[dP][Gly(But-3-enyl)]))	–	> 300 µM	–	–	–	–	–	–	–	–	–	–

More lines, main results first:

IC50 (HeLa nuclear extract)	IC50 (HDAC6)	IC50 (HDAC1)	IC50 (HDAC3/NCOR2)	IC50 (HDAC4)	IC50 (HDAC8)	GI50 (Jurkat [2])	GI50 (K562 [3])	GI50 (HeLa; Homo sapiens)	SMILES	GI50 (P. falciparum [1])	GI50 (HEK293; Homo sapiens, HEK293, 72 h)	also measured
> 100 µM	> 300 µM	–	–	–	–	–	–	–	CCC(=O)CCCCCCC(=O)Nc1ccccc1 [Compound 11g, 8-Oxo-N-phenyldecanamide]	–	–	–
0.88 ± 0.05 µM	> 300 µM	5.04 ± 0.07 µM	1.97 ± 0.03 µM	> 100 µM	> 100 µM	2.84 ± 0.7 µM	7.12 ± 0.9 µM	115 ± 25.3 µM	C[C@H](O)C(=O)CCCCCCC(=O)Nc1cccc(-c2cn(-c3ccccc3)nn2)c1 [Compound 11e, (S)-9-Hydroxy-8-oxo-N-(3-(1-phenyl-1H-1,2,3-triazol-4-yl)phenyl)decanamide]	4.85 ± 1.3 µM	15.9 ± 1.13 µM	GI50 (normal B lymphocytes): > 50 µM
27.3 ± 5.9 µM	> 300 µM	–	–	–	–	–	–	–	C[C@@H](O)C(=O)CCCCCCCC(=O)Nc1ccccc1 [Compound 11c, (R)-10-Hydroxy-9-oxo-N-phenylundecanamide]	–	–	–
63.8 ± 5.3 µM	> 300 µM	–	–	–	–	≥ 100 µM	≥ 100 µM	> 50 µM	CC(=O)O[C@H](C)C(=O)CCCCCCC(=O)Nc1ccccc1 [Compound 12b, (R)-3,10-Dioxo-10-(phenylamino)decan-2-yl Acetate]	40.1 ± 4.3 µM	36.3 ± 1.7 µM	–
8.9 ± 0.5 µM	> 300 µM	7.9 ± 0.8 µM	50.2 ± 4.7 µM	> 100 µM	> 100 µM	92 ± 1 µM	62.3 ± 5.8 µM	> 50 µM	C[C@@H](O)C(=O)CCCCCCC(=O)Nc1ccccc1 [Compound 11b, (R)-9-Hydroxy-8-oxo-N-phenyldecanamide]	37.9 ± 3.8 µM	35.6 ± 1.6 µM	–
77.1 ± 6.4 µM	> 300 µM	–	–	–	–	–	–	–	C[C@H](O)C(=O)CCCCCCC(=O)Nc1ccccc1 [Compound 11f, (S)-9-Hydroxy-8-oxo-N-phenyldecanamide]	–	–	–
> 100 µM	101 ± 2.9 µM	–	–	–	–	–	–	–	C[C@@H](O)C(=O)CCCCCC(=O)Nc1ccccc1 [Compound 11a, (R)-8-Hydroxy-7-oxo-N-phenylnonanamide]	–	–	–
